Assay results published in patent US6737383B1, “Herbicidal oxadiazolidines” (priority 1999, dated 2004).

Assays:
wheat = test: Test B pre/postemergence wheat; assay type: in vivo, Triticum aestivum
Summary of the method: (§1)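 Response is a visual 0-to-10 score relative to untreated plants, where 0 means no effect and 10 means complete control, taken twelve to sixteen days after application. Treatments went onto soil at planting and onto foliage of 1- to 4-leaf plants, using a surfactant-containing non-phytotoxic solvent.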

crabgrass = test: Test B pre/postemergence crabgrass; assay type: in vivo, Digitaria sanguinalis
Summary of the method: as §1

wild oat = test: Test B pre/postemergence wild oat; assay type: in vivo, Avena fatua
Summary of the method: as §1

cocklebur = test: Test B pre/postemergence cocklebur; assay type: in vivo, Xanthium strumarium
Summary of the method: as §1

[1] = Preemergence, Rate 62 g/ha, scale of 0 to 10 where 0 is no effect and 10 is complete control
[2] = Preemergence, Rate 250 g/ha, scale of 0 to 10 where 0 is no effect and 10 is complete control
[3] = Preemergence, Rate 500 g/ha, scale of 0 to 10 where 0 is no effect and 10 is complete control
[4] = Rate 62 g/ha, Postemergence, scale 0 to 10 (0 no effect, 10 complete control)
[5] = Rate 125 g/ha, Postemergence, scale of 0 to 10 where 0 is no effect and 10 is complete control
[6] = Rate 250 g/ha, Postemergence, scale of 0 to 10 where 0 is no effect and 10 is complete control
[7] = Rate 500 g/ha, Postemergence, scale 0 to 10, 0 no effect, 10 complete control
[8] = Postemergence, Rate 125 g/ha, scale 0 to 10, 0 is no effect, 10 is complete control
[9] = Rate 62 g/ha, Postemergence, scale of 0 to 10 where 0 is no effect and 10 is complete control

| Compound | Wheat plant response rating (wheat; [1]) | Wheat plant response rating (0 to 10 scale) (wheat; Preemergence, Rate 125 g/ha) | Wheat plant response rating (wheat; [2]) | Wheat plant response rating (wheat; [3]) | Wheat plant response rating (wheat; [4]) | Plant response rating, Wheat (wheat; [7]) | Crabgrass plant response rating (crabgrass; [1]) | Crabgrass plant response rating (0 to 10 scale) (crabgrass; Preemergence, Rate 125 g/ha) | Crabgrass plant response rating (crabgrass; [2]) | Crabgrass plant response rating (crabgrass; [3]) | Plant response rating, Crabgrass (crabgrass; [7]) | Wild oats plant response rating (wild oat; [1]) | Wild oats plant response rating (0 to 10 scale) (wild oat; Preemergence, Rate 125 g/ha) | Wild oats plant response rating (wild oat; [2]) | Wild oats plant response rating (wild oat; [3]) | Plant response rating, Wild oats (wild oat; [7]) | Cocklebur plant response rating (cocklebur; [1]) | Cocklebur plant response rating (0 to 10 scale) (cocklebur; Preemergence, Rate 125 g/ha) | Cocklebur plant response rating (cocklebur; [2]) | Cocklebur plant response rating (cocklebur; [3]) | further results |
| --- | --- | --- | --- | --- | --- | --- | --- | --- | --- | --- | --- | --- | --- | --- | --- | --- | --- | --- | --- | --- | --- |
| CC(C)N(C(=O)n1oc(=O)n(CCCN(C)C)c1=O)c1ccc(F)cc1 [Compound 323] | 0 | 0 | 0 | 0 | 0 | 0 | 0 | 0 | 0 | 2 | 0 | 0 | 0 | 0 | 0 | 0 | 0 | 0 | 0 | 0 | Wheat plant response rating (wheat; [5]): 0; Plant response rating, Wheat (wheat; [6]): 0; Crabgrass plant response rating (crabgrass; [4]): 0; Crabgrass plant response rating (crabgrass; [5]): 0; Plant response rating, Crabgrass (crabgrass; [6]): 0; Wild oats plant response rating (wild oat; [4]): 0; Wild oats plant response rating (wild oat; [5]): 0; Plant response rating, Wild oats (wild oat; [6]): 0; Cocklebur plant response rating (cocklebur; [4]): 0; Cocklebur plant response rating (cocklebur; [5]): 0; Plant response rating, Cocklebur (cocklebur; [6]): 0; Plant response rating, Cocklebur (cocklebur; [7]): 0 |
| CC(C)N(C(=O)n1oc(=O)n(C2CC3CCC2C3)c1=O)c1ccc(F)cc1F (stereo not shown) [Compound 326] | 0 | 0 | 0 | 2 | 0 | 0 | 0 | 0 | 3 | 5 | 3 | 0 | 1 | 3 | 3 | 0 | 0 | 0 | 0 | 0 | Plant response rating, Wheat (wheat; [8]): 0; Plant response rating, Wheat (wheat; [6]): 0; Plant response rating, Crabgrass (crabgrass; [8]): 0; Crabgrass plant response rating (crabgrass; [4]): 0; Plant response rating, Crabgrass (crabgrass; [6]): 1; Plant response rating, Wild oats (wild oat; [8]): 0; Wild oats plant response rating (wild oat; [4]): 0; Plant response rating, Wild oats (wild oat; [6]): 0; Plant response rating, Cocklebur (cocklebur; [8]): 0; Cocklebur plant response rating (cocklebur; [4]): 0; Plant response rating, Cocklebur (cocklebur; [6]): 0; Plant response rating, Cocklebur (cocklebur; [7]): 2 |
| CC(C)N(C(=O)n1oc(=O)n(-c2ccc3ccccc3c2)c1=O)c1ccc(F)cc1F [Compound 335] | 0 | 0 | 0 | 0 | 0 | 0 | 0 | 0 | 2 | 2 | 0 | 0 | 0 | 0 | 0 | 0 | 0 | 0 | 0 | 0 | Plant response rating, Wheat (wheat; [8]): 0; Plant response rating, Crabgrass (crabgrass; [8]): 0; Crabgrass plant response rating (crabgrass; [4]): 0; Plant response rating, Wild oats (wild oat; [8]): 0; Wild oats plant response rating (wild oat; [4]): 0; Plant response rating, Cocklebur (cocklebur; [8]): 0; Cocklebur plant response rating (cocklebur; [4]): 0; Plant response rating, Cocklebur (cocklebur; [7]): 0 |
| Cc1c(-n2c(=O)on(C(=O)N(c3ccc(F)cc3F)C(C)C)c2=O)ccc2ccccc12 [Compound 337] | 0 | 0 | 0 | 0 | 0 | 0 | 0 | 0 | 0 | 3 | 0 | 0 | 0 | 0 | 0 | 0 | 0 | 0 | 0 | 0 | Plant response rating, Wheat (wheat; [8]): 0; Plant response rating, Crabgrass (crabgrass; [8]): 0; Crabgrass plant response rating (crabgrass; [4]): 0; Plant response rating, Wild oats (wild oat; [8]): 0; Wild oats plant response rating (wild oat; [4]): 0; Plant response rating, Cocklebur (cocklebur; [8]): 0; Cocklebur plant response rating (cocklebur; [4]): 0 |
| Cc1c(-n2c(=O)on(C(=O)N(c3ccc(F)cc3)C(C)C)c2=O)ccc2ccccc12 [Compound 338] | 0 | 0 | 0 | 0 | 0 | 0 | 0 | 0 | 0 | 0 | 0 | 0 | 0 | 0 | 0 | 0 | 0 | 0 | 0 | 0 | Plant response rating, Wheat (wheat; [8]): 0; Plant response rating, Crabgrass (crabgrass; [8]): 0; Crabgrass plant response rating (crabgrass; [4]): 0; Plant response rating, Wild oats (wild oat; [8]): 0; Wild oats plant response rating (wild oat; [4]): 0; Plant response rating, Cocklebur (cocklebur; [8]): 0; Cocklebur plant response rating (cocklebur; [4]): 0; Plant response rating, Cocklebur (cocklebur; [7]): 0 |
| CC(C)N(C(=O)n1oc(=O)n(C2CCCCCC2)c1=O)c1ccc(Cl)cc1 [Compound 339] | 0 | 0 | 0 | 0 | – | 0 | 0 | 0 | 2 | 5 | 2 | 0 | 0 | 0 | 0 | 0 | 0 | 0 | 0 | 0 | Plant response rating, Wheat (wheat; [8]): 0; Wheat plant response rating (wheat; [9]): 0; Plant response rating, Crabgrass (crabgrass; [8]): 0; Crabgrass plant response rating (crabgrass; [9]): 0; Plant response rating, Wild oats (wild oat; [8]): 0; Wild oats plant response rating (wild oat; [9]): 0; Plant response rating, Cocklebur (cocklebur; [8]): 0; Cocklebur plant response rating (cocklebur; [9]): 0; Plant response rating, Cocklebur (cocklebur; [7]): 0 |
